Patent publication US20070043018A1, “2"-Hydroxynicotianamine, process for producing the same and angiotensin converting enzyme inhibitor, hypotensive drug and health food” (JAPAN SCIENCE AND TECHNOLOGY AGENCY, priority 2003, published 2007)

Key:
[1] = molecular target: T1, ACE from the lung of rabbit (Oryctolagus cuniculus, UniProt P12822); test: Measurement of ACE inhibitory activity by Cushman and Cheung method; format: biochemical; details: substrate hippuryl-L-histidyl-L-leucine, pH 8.3, 37° C. for 30 minutes, no pre-incubation; determined by extrapolation on the graph; read-out: concentration that indicates 50% inhibition (IC50) of ACE
T1 construct: ACE used was a freeze dry product of ACE from the lung of rabbit (manufactured by Sigma); purchased Sigma; host or cells: rabbit lung tissue
T1 sequence (P12822 34-1310): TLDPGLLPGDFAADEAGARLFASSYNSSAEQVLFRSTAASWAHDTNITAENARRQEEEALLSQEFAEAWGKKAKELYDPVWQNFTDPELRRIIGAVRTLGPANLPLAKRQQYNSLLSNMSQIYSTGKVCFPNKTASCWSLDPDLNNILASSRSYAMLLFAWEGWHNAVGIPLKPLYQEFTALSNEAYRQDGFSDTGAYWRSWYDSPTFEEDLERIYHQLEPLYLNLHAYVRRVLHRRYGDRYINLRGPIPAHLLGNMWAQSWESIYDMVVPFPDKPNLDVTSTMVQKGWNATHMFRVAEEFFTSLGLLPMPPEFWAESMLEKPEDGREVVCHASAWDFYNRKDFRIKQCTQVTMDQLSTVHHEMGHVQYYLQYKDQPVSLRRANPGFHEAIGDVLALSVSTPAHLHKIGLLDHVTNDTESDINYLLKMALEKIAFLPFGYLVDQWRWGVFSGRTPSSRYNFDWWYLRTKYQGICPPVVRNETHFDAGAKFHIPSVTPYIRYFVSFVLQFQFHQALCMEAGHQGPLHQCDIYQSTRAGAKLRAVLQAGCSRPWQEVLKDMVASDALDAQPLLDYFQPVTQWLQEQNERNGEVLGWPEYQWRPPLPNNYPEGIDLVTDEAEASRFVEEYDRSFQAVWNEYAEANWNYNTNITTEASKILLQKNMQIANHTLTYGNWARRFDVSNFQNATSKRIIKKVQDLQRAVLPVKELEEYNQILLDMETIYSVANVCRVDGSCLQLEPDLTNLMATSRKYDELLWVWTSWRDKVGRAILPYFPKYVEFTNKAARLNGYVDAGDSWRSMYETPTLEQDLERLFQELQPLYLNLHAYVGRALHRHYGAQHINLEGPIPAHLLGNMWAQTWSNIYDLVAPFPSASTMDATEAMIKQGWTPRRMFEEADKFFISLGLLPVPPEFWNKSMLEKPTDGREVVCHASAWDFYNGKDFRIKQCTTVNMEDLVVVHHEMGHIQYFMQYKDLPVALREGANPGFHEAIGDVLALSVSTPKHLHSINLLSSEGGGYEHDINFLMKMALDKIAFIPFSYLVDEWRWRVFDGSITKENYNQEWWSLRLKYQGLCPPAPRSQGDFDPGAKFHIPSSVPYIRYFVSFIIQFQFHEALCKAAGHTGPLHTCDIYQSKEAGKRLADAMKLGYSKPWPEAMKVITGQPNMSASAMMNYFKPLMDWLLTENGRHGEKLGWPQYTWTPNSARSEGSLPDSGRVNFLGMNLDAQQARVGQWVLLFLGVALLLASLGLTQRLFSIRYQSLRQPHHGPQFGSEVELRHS
From the text: The separation and purification process comprises the steps of: injecting the extract solution obtained in the extraction process into a column filled with the cation exchange resin or anion exchange resin by a known method; washing the column with water and eluting the column with the aqueous electrolyte solution as the eluant; and measuring the ACE inhibitory activity of the fractions obtained to collect the fractions having the ACE inhibitory activity. Known methods such as the method of Cushman and Cheung may be used for measuring the ACE inhibitory activity.
<Measurement of ACE Inhibitory Activity>
The ACE inhibitory activity was measured as follows by Cushman and Cheung method. […]
After mixing the compositions of the reaction solution (i), (ii), (iii), and (iv), enzyme solution (v) was added to the mixed solution without pre-incubation, and the solution was allowed to react (incubate) at 37° C. for 30 minutes. […] The extract solution was evaporated to dryness using a centrifugal evaporator, and the residue was dissolved in 1 ml of water to measure the concentration of the extract by absorbance at 228 nm using a spectrophotometer. The measured absorbance was defined as ODs (ODs1, ODs2 and ODs3) for the measurements using samples solutions 1, 2 and 3, respectively. […]

[2] = Solubility (other chemical and physical properties); format: physicochemical; details: in water, dilute acid and dilute alkali
Procedure: While the novel substance of the invention is positive to the ninhydrin reaction, the reaction is suppressed by Cu^2+ ions. […] Almost no usual amino acids are detected when amino acids are detected with an automatic amino acid analyzer after decomposing the novel substance of the invention with 6N HCl at 110° C. for 16 hours, and the decomposition product has a complicated composition. The novel substance of the invention has a melting point of 275 to 280° C. and a specific rotation [α]D^23.6 of −40° (c=0.4 g/100 ml; solvent=water) and [α]D^23.6 of −34.5° (c=0.2 g/100 ml/; solvent=1N HCl).

| IC50 [1] [nM] | Compound | solubility [2] |
| --- | --- | --- |
| 80 | N[C@H](C(=O)O)C(O)CN[C@@H](CCN1CC[C@H]1C(=O)O)C(=O)O (stereo partly drawn) [2″-hydroxynicotianamine] | soluble in water, dilute acid and dilute alkali |
| 85 | N[C@@H](CCN[C@@H](CCN1CC[C@H]1C(=O)O)C(=O)O)C(=O)O [nicotianamine, Nicotianamine] |  |
